Laboratory results taken from patent publication US6191150A, “Formamide compounds as therapeutic agents” (Glaxo Wellcome Inc., priority 1998, dated 2001).
Where two headings read alike, the source gives them in different places.

How the values were obtained:
[1] = biological target: T1, 19 kD truncated collagenase-1 (MMP-1) (Homo sapiens, UniProt P03956); assay: Matrix metalloprotease inhibition, fluorogenic substrate: collagenase-1; type: biochemical
T1 construct: 19 kD truncated collagenase-1 (MMP-1)
T1 sequence (P03956 101-269 limits assumed): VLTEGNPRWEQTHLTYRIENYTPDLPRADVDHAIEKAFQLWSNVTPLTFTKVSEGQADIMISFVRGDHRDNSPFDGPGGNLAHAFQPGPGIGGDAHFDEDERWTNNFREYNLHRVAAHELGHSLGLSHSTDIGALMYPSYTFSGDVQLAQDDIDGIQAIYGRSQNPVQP
Description: (§1) Assays are conducted in a total volume of 0.180 mL assay buffer (200 mM NaCl, 50 mM Tris, 5 mM CaCl2, 10 μM ZnSO4, 0.005% Brij 35, pH 7.6) in each well of a black 96-well microtiter plate. 19 kD collagenase-1, 20 kD collagenase-3, stromelysin-1,and 50 kD gelatinase B concentrations are adjusted to 500 pM, 30 pM, 5 nM, and 100 pM, respectively. A dose response is generated using an eleven-point, 3-fold serial dilution with initial starting test compound concentrations of 100, 10, or 1 μM. Inhibitor and enzyme reactions are incubated for 30 minutes at ambient temperature and then initiated with 10 μM fluorogenic substrate (above). The product formation is measured at Excitation343 /Emission450 nm after 45-180 minutes using a Fluostar SLT fluorescence analyzer. Percent inhibition is calculated at each inhibitor concentration and the data are plotted using standard curve fitting programs. IC50 values are determined from these curves. Assays are run at low substrate concentration ([S]<<Km) such that the calculated IC50 values are equivalent to Ki within experimental error.

serum TNFα = assay: Murine LPS-stimulated serum TNF inhibition; type: in vivo, mouse (C3/hen female mice); details: s.c., 40 mg/kg, 10 min prior to 200 μg/kg i.p. LPS; 90 min after LPS
Description: USA) for a final DMSO concentration of 1%. The dosing solution is sonicated briefly and 0.2 mL is injected subcutaneously 10 min prior to LPS injection, b) for per oral (p.o.) administration, test compounds are formulated in 0.2 mL of PBS and 0.1% Tween 80 and given orally via gavage 10 min prior to LPS administration.
Blood is immediately taken from the caudal vena cava and plasma prepared and frozen at -80° C. Plasma concentrations of TNF are measured by ELISA (Genzyme Co., Cambridge Mass.).

stromelysin-1 = stromelysin-1 (Homo sapiens, UniProt P08254); assay: Matrix metalloprotease inhibition, fluorogenic substrate: stromelysin-1; type: biochemical
Description: as §1

[2] = tested on: release of soluble tumor necrosis factor α from stimulated monocytes; assay: Cell-based TNFα release inhibition, LPS/PMA-stimulated MonoMac 6 cells, ELISA; details: Homo sapiens, MONO-MAC-6, 37° C., 2 h
Description: Compounds (10 mM) are serially diluted 1:3 in DMSO. Compound dilutions (20 μL) are added to a sterile round bottom 96 well plate (20 μL:200 μL total volume=1:10 for final concentrations of […] for test compounds). MonoMac 6 cell suspension (130 μL, 1.5×10^6 cells/mL) is then added to each well resulting in 2×10^5 cells/well. LPS/PMA (50 μL) solution is then added to each well (final concentrations of 10 ng/mL and 30 ng/mL respectively). The plate is incubated at 37° C. for 2 h then spun at 1,500 rpm for 3 min to pellet cells. The supernatant (120 μL/well) is removed to a new round bottom 96 well plate and diluted 1:10 in PBS. Then, 20 μL of the supernatant is transferred to a Cistron […] ELISA plate and processed according to the manufacturer's instructions to quantitate levels of TNFα. Percent inhibition of TNFα release is calculated at each inhibitor concentration and the data are plotted using standard curve fitting programs. IC50 values are determined from these curves.

TNFα Converting Enzyme = biological target: T2, TNFα Converting Enzyme (Homo sapiens, UniProt P78536); assay: TNFα converting enzyme inhibition, MonoMac 6 membrane preparation, radiolabeled substrate SPA; type: biochemical; for TNFα Converting Enzyme Ki: 200 nM substrate
T2 construct: Membrane preparation from MonoMac 6 cells; endogenous in cells; host or cells: MonoMac 6 cells, subfractionated membrane preparation
Description: The reaction is quenched by addition of streptavidin SPA beads (Amersham RPNQ0006), with excess binding capacity relative to substrate, suspended in 250 mM EDTA, pH 8.0. Binding is complete within 15 minutes and plates are counted in a Wallac 1450 Microbeta liquid scintillation counter. Percent inhibition is calculated at each inhibitor concentration and the data are plotted using standard curve fitting programs. IC50 values are determined from these curves. Assays are run at low substrate concentration ([S]<<Km) such that the calculated IC50 values are equivalent to Ki within experimental error.

[3] = read-out: TNFα Converting Enzyme Ki

T2 sequence (P78536 215-824): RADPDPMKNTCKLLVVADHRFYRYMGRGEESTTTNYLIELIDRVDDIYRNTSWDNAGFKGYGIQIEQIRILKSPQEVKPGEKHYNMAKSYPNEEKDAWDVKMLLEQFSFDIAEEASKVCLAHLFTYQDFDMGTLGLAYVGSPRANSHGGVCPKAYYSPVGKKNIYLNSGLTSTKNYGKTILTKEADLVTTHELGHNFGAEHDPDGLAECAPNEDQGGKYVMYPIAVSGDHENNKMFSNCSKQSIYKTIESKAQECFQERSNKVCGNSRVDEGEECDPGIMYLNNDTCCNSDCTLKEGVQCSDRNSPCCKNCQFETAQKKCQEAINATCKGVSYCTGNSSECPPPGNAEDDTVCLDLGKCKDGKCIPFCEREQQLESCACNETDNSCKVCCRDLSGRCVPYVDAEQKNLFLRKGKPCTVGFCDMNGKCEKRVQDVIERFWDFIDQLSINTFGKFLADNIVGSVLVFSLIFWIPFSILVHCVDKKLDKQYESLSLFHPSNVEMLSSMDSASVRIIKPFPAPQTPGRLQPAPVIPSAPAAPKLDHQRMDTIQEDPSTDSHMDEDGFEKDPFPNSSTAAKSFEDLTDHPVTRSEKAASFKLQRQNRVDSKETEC
Chain of stromelysin-1 (P08254 100-477): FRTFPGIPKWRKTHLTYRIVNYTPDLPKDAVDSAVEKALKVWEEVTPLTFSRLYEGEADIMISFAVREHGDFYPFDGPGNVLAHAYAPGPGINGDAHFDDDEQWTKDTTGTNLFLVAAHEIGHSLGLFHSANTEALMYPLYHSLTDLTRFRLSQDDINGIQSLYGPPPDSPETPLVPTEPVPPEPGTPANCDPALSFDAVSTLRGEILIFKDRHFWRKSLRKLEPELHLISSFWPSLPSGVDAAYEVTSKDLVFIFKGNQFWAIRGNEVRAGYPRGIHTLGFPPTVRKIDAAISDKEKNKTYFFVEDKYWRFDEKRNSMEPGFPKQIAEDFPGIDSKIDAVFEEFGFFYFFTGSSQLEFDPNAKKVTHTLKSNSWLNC

Structure (SMILES)	Ki [1]	Percentage Inhibition of Serum TNFα (serum TNFα)	Ki (stromelysin-1)	IC50 [2]	Ki (TNFα Converting Enzyme; [3])	Ki (TNFα Converting Enzyme)
CC1CCC(C[C@@H](C(=O)N[C@@H](CCCNC(N)=N[N+](=O)[O-])C(=O)Nc2nccs2)[C@H](C(C)C)N(O)C=O)CC1 (stereo partly drawn) [Example 8, (2R,3S)-3-(Formyl-hydroxyamino)-2-(4-methylcyclohexyl-methyl)-4-methylpentanoic Acid [(1S)-4-(nitroimino-amino)methylamino-1-(1,3-thiazol-2-ylcarbamoyl)-1-butyl]amide]	50 to 250 nM	++ (50%-75%)	50 to 250 nM	< 50 nM		
NC(=N[N+](=O)[O-])NCCC[C@H](NC(=O)[C@H](CC1CCCCC1)[C@H](CCC(F)(F)F)N(O)C=O)C(=O)Nc1nccs1 [Example 6, (2R,3S)-3-(Formyl-hydroxyamino)-2-(cyclohexylmethyl)-6,6,6-trifluorohexanoic Acid [(1S)-4-(nitroimino-amino)methylamino-1-(1,3-thiazol-2-ylcarbamoyl)-1-butyl]amide]	50 to 250 nM	++ (50%-75%)	50 to 250 nM	50 to 250 nM	< 50 nM	
CCC[C@@H]([C@@H](CC(C)C)C(=O)N[C@H](C(=O)Nc1nccs1)[C@H](C)CCNC(N)=N[N+](=O)[O-])N(O)C=O [Example 4, (2R,3S)-3-(Formyl-hydroxyamino)-2-(2-methyl-1-propyl)hexanoic Acid [(1S,2R)-2-Methyl-4-(nitroimino-amino)methylamino-1-(1,3-thiazol-2-ylcarbamoyl)-1-butyl]amide]	< 50 nM		50 to 250 nM	< 50 nM	< 50 nM	
CCC[C@@H]([C@@H](CC1CCC(C)CC1)C(=O)N[C@@H](CCCNC(N)=N[N+](=O)[O-])C(=O)Nc1nccs1)N(O)C=O (stereo partly drawn) [Example 7, (2R,3S)-3-(Formyl-hydroxyamino)-2-(4-methylcyclohexyl-methyl)hexanoic Acid [(1S)-4-(nitroimino-amino)methyl-amino-1-(1,3-thiazol-2-ylcarbamoyl)-1-butyl]amide]	50 to 250 nM	++ (50%-75%)	50 to 250 nM	50 to 250 nM	< 50 nM	
NC(=N[N+](=O)[O-])NCCC[C@H](NC(=O)[C@H](CC1CCCCC1)[C@H](C1CC1)N(O)C=O)C(=O)Nc1nccs1 [Example 10, (2R,3S)-3-(Formyl-hydroxyamino)-2-(cyclohexylmethyl)-3-cyclopropylpropanoic Acid [(1S)-4-(nitroimino-amino)methylamino-1-(1,3-thiazol-2-ylcarbamoyl)-1-butyl]amide]	50 to 250 nM	++ (50%-75%)	> 1000 nM	250 to 500 nM		< 50 nM
CC(C)C[C@@H](C(=O)N[C@@H](CCCNC(N)=N[N+](=O)[O-])C(=O)Nc1nccs1)[C@H](Cc1ccccc1)N(O)C=O [Example 5]	< 50 nM		< 50 nM	250 to 500 nM		
CCC[C@@H]([C@@H](Cc1ccc(C)s1)C(=O)N[C@@H](CCCNC(N)=N[N+](=O)[O-])C(=O)Nc1nccs1)N(O)C=O [Example 9, (2R,3S)-3-(Formyl-hydroxyamino)-2-(5-methyl-2-thio-phenemethyl)hexanoic Acid [(1S)-4-((nitroimino-amino)methylamino)-1-(1,3-thiazol-2-ylcarbamoyl)-1-butyl]amide]	> 1000 nM		50 to 250 nM	50 to 250 nM		
CC(C)C[C@@H](C(=O)N[C@H](C(=O)Nc1nccs1)[C@H](C)CCNC(N)=N[N+](=O)[O-])[C@H](C)N(O)C=O [Example 3, (2R,3S)-3-(Formyl-hydroxyamino)-2-(2-methyl-1-propyl)butanoic Acid [(1S,2R)-2-Methyl-4-(nitroimino-amino)methylamino-1-(1,3-thiazol-2-ylcarbamoyl)-1-butyl]amide]	< 50 nM		50 to 250 nM	< 50 nM	< 50 nM	
CCC[C@@H]([C@@H](CC(C)C)C(=O)N[C@@H](CCCNC(N)=N[N+](=O)[O-])C(=O)Nc1nccs1)N(O)C=O [Example 1, (2R,3S)-3-(Formyl-hydroxyamino)-2-(2-methyl-1-propyl)hexanoic Acid [(1S)-4-(nitroimino-amino)methylamino-1-(1,3-thiazol-2-ylcarbamoyl)-1-butyl]amide]	< 50 nM	+++ (>75%)	< 50 nM	< 50 nM		
CCC[C@@H]([C@@H](CC1CCCCC1)C(=O)N[C@@H](CCCNC(N)=N[N+](=O)[O-])C(=O)Nc1nccs1)N(O)C=O [Example 2, (2R,3S)-3-(Formyl-hydroxyamino)-2-(cyclohexylmethyl)hexanoic Acid [(1S)-4-(nitroimino-amino)methylamino-1-(1,3-thiazol-2-ylcarbamoyl)-1-butyl]amide]	50 to 250 nM	++ (50%-75%)	50 to 250 nM	< 50 nM	< 50 nM	
